{
  "source": "patent US10933141B2",
  "about": "“Formulations with reduced degradation of polysorbate” (Genentech, Inc., priority 2015, dated 2021)",
  "key": {"[1]": {"assay": "Solubilization of existing visible and subvisible particles from enzymatic PS20 degradation (HIAC, Seidenader)", "type": "physicochemical", "details": "for amount of SVP after excipient spiked into degraded PS20 solution: 0.05% PS20 degraded with 37.5 μg/mL PPL, 35.5 mM HP-α-CD or HP-γ-CD, 0.5-15% HP-β-CD, 5° C. overnight, HIAC", "protocol": "Subvisible particles were measured using a HIAC 9703 particle counter equipped with an HRDL-150 detector and a 1 mL syringe. Performance of the instrument was verified with NIST-traceable 2 μm Polystyrene bead standards at 3000 counts/mL before each measurement session. The HIAC instrument was configured to a 10 mL/min flow rate, 0.1 mL tare volume, and 0.4 mL sample volume. The samples were analyzed using 4 runs of 0.4 mL sips, with the first run of each sample was discarded to prevent measurement error due to sample carryover. Results were reported as the average values for 1.4, 2, 5, 10, 15, and 25, 50 μm analysis filter sizes.\nVials were inspected for visible particulates using a Seidenader V90-T visual inspection unit (Markt Schwaben, Germany) with vial carriage tilted to 60 degrees. Visible particle inspection of samples was performed by placing the glass vials in the holder and rotating in the presence of a Tyndall light directed through the bottom of the vial. Pre-rotation (i.e., fast rotation) was first performed to agitate the liquids, suspend, and circulate particles. Following rotation and illumination, the particles are in motion and the light causes reflections of the particles that make them visible (i.e., Tyndall effect). Visible particles were then observed using a magnifying lens. Videos and photographs of visible particles were obtained using a Samsung (seoul, South Korea) Galaxy device.\nSeveral excipients were tested for their ability to solubilize particles produced as a result of enzymatic PS20 degradation. Solutions of concentrated HP-α-CD, HP-β-CD, HP-γ-CD, SBE-β-CD, PVP, PEG 1500, sucrose, and methionine were prepared in triplicate in pH 5.5 buffer. Particles from enzymatic PS20 degradation were prepared. Three solutions of 0.05% PS20 in pH 5.5 buffer were enzymatically degraded with 37.5 μg/mL PPL for 4.5 hours at room temperature, followed by 30 minutes of heat inactivation at 85° C. The degraded PS20 solutions were placed at 5° C. to allow for crystallization of particles.\nAfter particle formation in the degraded PS20 solutions, the remaining sample preparation was conducted in a 5° C. cold room to prevent the PS20 derived particles from dissolving. Each degraded PS20 solution was divided into 11 aliquots and concentrated excipient was spiked into each the aliquots. The final concentration of excipient in each sample was as follows: 5% sucrose, 10 mg/mL methionine, 5% PVP, 5% PEG 1500, 15% HP-β-CD, 5% HP-β-CD, 0.5% HP-β-CD, 35.5 mM HP-α-CD, 35.5 mM HP-γ-CD, and 35.5 mM SBE-β-CD. After the addition of each excipient, samples were left at 5° C. overnight. The following day, vials were inspected for visible particles under a Seidenader visual inspection instrument. Subvisible particle counts were measured using a HIAC 9703 particle counter."}, "[2]": {"target": "T1, Candida Antarctica Lipase B (CALB) (Moesziomyces antarcticus, UniProt P41365)", "T1 construct": "purchased Sigma Aldrich Inc. (St. Louis, Mo.)", "T1 sequence (P41365 26-342)": "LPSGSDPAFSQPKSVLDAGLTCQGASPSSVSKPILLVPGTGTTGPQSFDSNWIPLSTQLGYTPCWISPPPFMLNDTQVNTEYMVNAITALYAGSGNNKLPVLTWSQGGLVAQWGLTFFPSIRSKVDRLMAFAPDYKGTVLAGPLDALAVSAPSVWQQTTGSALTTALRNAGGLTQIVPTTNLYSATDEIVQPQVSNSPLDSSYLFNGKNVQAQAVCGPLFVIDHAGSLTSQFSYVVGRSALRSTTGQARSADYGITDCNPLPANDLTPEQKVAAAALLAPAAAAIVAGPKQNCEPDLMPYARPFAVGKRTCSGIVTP", "assay": "Enzymatic degradation of PS20 by CALB, PS20 by RP-ELSD", "type": "biochemical", "details": "for PS20 degradation (in words): 15% (w/v) excipient", "protocol": "Polysorbate concentration was determined using reverse phase ultra-performance liquid chromatography using evaporative light scattering detection (RP-ELSD). Samples were analyzed using an Agilent 1100 series high performance liquid chromatography system (HPLC) fitted with a Waters Oasis MAX cartridge column (20×2.1 mm, 30 μm particle size). The HPLC system was set up with a switching valve directing column flow-through to either waste or a Varian 380-LC evaporative light scattering detector set to 100° C. The mobile phases consisted of 2% formic acid in water (Pump A) and 2% formic acid in isopropanol (Pump B). The pump gradient was isocratic at 10% pump B during equilibration, linear to 20% pump B for 1 minute, isocratic at 20% pump B for 2.4 minutes, linear to 100% pump B for 0.1 minutes, isocratic at 100% pump B for 1.1 minutes, linear to 10% pump B for 0.1 minutes, and finally isocratic at 10% pump B for 1.9 minutes. The switching valve directed column flow-through to waste at the beginning of every injection, and then directed flow to the detector after 2.4 minutes until the end of the gradient. In order to quantitate the PS20 concentration, a standard curve was generated by injecting 20 μL of solutions containing between 0% w/v and 0.4% w/v PS20. For excipients which affected the migration time of PS20 through the column, PS20 standard curve solutions containing the relevant excipient were included in the analysis to facilitate accurate quantitation.\n[…] Samples of 0.02% PS20 in pH 5.5 buffer containing either no additional excipient, 15% Sucrose, […] the enzymes porcine pancreatic lipase (PPL), lipoprotein lipase (LPL), Candida Antarctica lipase (CALB) and rabbit liver esterase (RLE) at room temperature. PPL samples were digested with 15 μg/mL enzyme for 4.5 hours. LPL samples were digested with 70 μg/mL enzyme for 5 hours. CALB samples were digested with 0.1 mg/mL immobilized enzyme for 1 hour. RLE samples were digested with 15 μg/mL enzyme for 5 hours. All digestions were conducted at room temperature.\nPPL digestion was stopped by heat inactivation in an 85° C. water bath for 30 minutes. LPL and RLE digestion could not be stopped by heat inactivation, so the samples were analyzed immediately for PS20 content. CALB digestion was stopped by filtering out the immobilized enzyme beads. In order to permit particle formation, CALB samples were placed at 5° C. overnight. RLE and LPL samples were frozen at −20° C. overnight to impede enzymatic activity and were then thawed over ice immediately prior to particle analysis.\nAs described above, all samples were analyzed for PS20 content by high performance liquid chromatography (Agilent 1100 series) with an inline evaporative light scattering detector (Varian 380-LC series). Visible particle inspection was conducted on a Seidenader visual inspection instrument. Subvisible particle analysis was conducted on a HIAC 9703 particle counter."}, "[3]": {"details": "0.02 (w/v) PS20, CALB digestion (FIG. 9)"}},
  "note": "“Also recorded” adds a separate entry of the source.",
  "data": [
    {"compound": "2-hydroxypropyl-α-cyclodextrin [HP-α-CD]", "values": [
      {"measurement": "amount of SVP after excipient spiked into degraded PS20 solution", "setting": "[1]", "value": "significantly reduce the amount of SVP"},
      {"measurement": "PS20 degradation (in words)", "setting": "[2]; [3]", "value": "no significant PS20 degradation"}
    ]},
    {"compound": "2-hydroxypropyl-γ-cyclodextrin [HP-γ-CD]", "values": [
      {"measurement": "amount of SVP after excipient spiked into degraded PS20 solution", "setting": "[1]", "value": "significantly reduce the amount of SVP"},
      {"measurement": "PS20 degradation", "setting": "[2]; 15% HP-γ-CD, 0.02 (w/v) PS20, CALB digestion (FIG. 9)", "value": "~82", "unit": "%"}
    ]},
    {"compound": "OC[C@H]1O[C@@](CO)(O[C@H]2O[C@H](CO)[C@@H](O)[C@H](O)[C@H]2O)[C@@H](O)[C@@H]1O", "note": "[sucrose, reference compound]", "values": [
      {"measurement": "PS20 degradation (in words)", "setting": "[2]; [3]", "value": "significant decreases in PS20 concentration"}
    ]},
    {"compound": "2-hydroxypropyl-β-cyclodextrin [HP-β-CD]", "values": [
      {"measurement": "amount of SVP after excipient spiked into degraded PS20 solution", "setting": "[1]", "value": "significantly reduce the amount of SVP"},
      {"measurement": "visible particles after spiking excipient", "setting": "[1]; 15% (w/v) HP-β-CD, PS20 particles from PPL digestion", "value": "immediate solubilization of visible particles; also recorded: no visible particles"},
      {"measurement": "PS20 degradation (in words)", "setting": "[2]; [3]", "value": "no significant PS20 degradation"},
      {"measurement": "Polysorbate 20 (Relative %)", "setting": "[2]; 15% w/v HP-β-CD, 0.02% PS20, pH 5.5, 0.1 mg/mL immobilized CALB, 1 hour, room temperature", "value": 85.7, "unit": "%"}
    ]}
  ]
}
